{
  "source": "paper PMC3566133",
  "about": "“Molecular Analysis of the Prostacyclin Receptor’s Interaction with the PDZ1 Domain of Its Adaptor Protein PDZK1” (PLoS ONE, 2013)",
  "key": {"[1]": {"molecular_target": "T1, PDZ1 domain of PDZK1 (Mus musculus, UniProt Q9JIL4)", "T1 construct": "Recombinant wild-type PDZ1 domain (0.03 mM in 150 mM NaCl); made in house", "T1 sequence (Q9JIL4 9-90 limits assumed)": "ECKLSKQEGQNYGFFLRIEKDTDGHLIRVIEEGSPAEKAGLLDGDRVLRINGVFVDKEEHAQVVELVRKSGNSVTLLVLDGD", "experiment": "Isothermal titration calorimetry (ITC), binding to recombinant PDZ1 domain of PDZK1", "details": "VP-ITC microcalorimeter, 1.0 mM peptide titrated into 0.03 mM PDZ1, 150 mM NaCl, 25 mM Tris-pH 8.0, 0.5 mM TCEP, 20°C, triplicate, ORIGIN 7.0, read-out: Kd (binding affinity) to PDZ1", "description": "Expression and purification of recombinant proteins corresponding to PDZ1 domain 1(PDZ1) of PDZK1 and to full length PDZK1 has been described previously. Binding of synthetic peptides based on the C-terminus of the IP (Fig. 1) was measured using a VP-ITC microcalorimeter (GE Healthcare). Three individual peptides were used: Peptide 1 corresponded to the seven carboxy-terminal amino acids of mouse (m) IP, to which two N-terminal lysines (not part of the IP protein sequence) were added to increase peptide solubility (KK^411IAACSLC^417, ‘target peptide’); Peptide 2 consisted of an octapeptide corresponding to the carboxy-terminus of IP (K^407SEAIAAC^414) devoid of the 3 terminal amino acids (-aaX/-^415SLC^417) which would be removed by proteolytic cleavage following farnesylation. […] Titration curves were analyzed and Kd values determined using ORIGIN 7.0 software (Origin Lab) with baseline correction. […]\nFigure 2 Isothermal titration calorimetric analysis of the binding of a C-terminal peptide from IP to the PDZ1 domain of PDZK1. […] Titration curves were analyzed and Kd values determined using ORIGIN 7.0 software. […]"}, "[2]": {"molecular_target": "PDZ1 of PDZK1", "details": "cited from earlier work", "source_text": "PDZK1 is a multi-PDZ domain-containing adaptor protein known to play a role in the expression, localization and function of several cell surface receptors and ion channels. One of its molecular interactants is the prostacyclin receptor (IP), whose interaction with PDZK1 was recently described. […] These interactions involve a Class I type of binding typically seen for protein interactants with carbox ... || We recently solved the structures of the interactions between the HDL receptor SR-BI with the first and with the third PDZ domains of PDZK1 by X-ray crystallography, [32]. […] The crystal structure described herein, analyzing the interaction between the carboxy-terminus of the I ..."}, "[3]": {"test_system": "third PDZ domain (PDZ3) of PDZK1", "details": "cited from earlier work", "source_text": "We recently solved the structures of the interactions between the HDL receptor SR-BI with the first and with the third PDZ domains of PDZK1 by X-ray crystallography, [32]. […] The crystal structure described herein, analyzing the interaction between the carboxy-terminus of the I ..."}, "[4]": {"molecular_target": "T2, recombinant full-length PDZK1 (mouse, UniProt Q9JIL4 1-519)", "T2 construct": "PDZK1, full length, with PDZ1-PDZ4; source: recombinant, purified", "T2 sequence (looked up)": "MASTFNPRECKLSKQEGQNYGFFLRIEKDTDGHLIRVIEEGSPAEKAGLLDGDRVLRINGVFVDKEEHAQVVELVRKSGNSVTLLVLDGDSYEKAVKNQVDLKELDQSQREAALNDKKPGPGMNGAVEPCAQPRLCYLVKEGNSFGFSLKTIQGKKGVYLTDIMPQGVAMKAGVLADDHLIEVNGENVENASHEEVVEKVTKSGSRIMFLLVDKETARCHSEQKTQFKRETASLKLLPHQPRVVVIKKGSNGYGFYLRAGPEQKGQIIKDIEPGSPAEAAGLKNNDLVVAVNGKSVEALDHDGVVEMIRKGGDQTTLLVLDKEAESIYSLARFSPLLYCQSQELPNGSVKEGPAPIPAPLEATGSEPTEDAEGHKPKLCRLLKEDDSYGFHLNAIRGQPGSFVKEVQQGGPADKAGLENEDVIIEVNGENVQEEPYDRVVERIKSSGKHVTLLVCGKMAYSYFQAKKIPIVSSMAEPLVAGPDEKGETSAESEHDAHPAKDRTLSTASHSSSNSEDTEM", "experiment": "ITC; 1.0 mM peptide injected in 10 µl aliquots into 0.03 mM PDZ1 or full length PDZK1 in the cell; 150 mM NaCl, 25 mM Tris pH 8.0, 0.5 mM TCEP, 20°C; VP-ITC", "details": "both partners purified"}, "[5]": {"molecular_target": "T3, recombinant protein corresponding to PDZ domain 1 (PDZ1) of PDZK1 (mouse)", "T3 sequence (Q9JIL4 whole entry, looked up)": "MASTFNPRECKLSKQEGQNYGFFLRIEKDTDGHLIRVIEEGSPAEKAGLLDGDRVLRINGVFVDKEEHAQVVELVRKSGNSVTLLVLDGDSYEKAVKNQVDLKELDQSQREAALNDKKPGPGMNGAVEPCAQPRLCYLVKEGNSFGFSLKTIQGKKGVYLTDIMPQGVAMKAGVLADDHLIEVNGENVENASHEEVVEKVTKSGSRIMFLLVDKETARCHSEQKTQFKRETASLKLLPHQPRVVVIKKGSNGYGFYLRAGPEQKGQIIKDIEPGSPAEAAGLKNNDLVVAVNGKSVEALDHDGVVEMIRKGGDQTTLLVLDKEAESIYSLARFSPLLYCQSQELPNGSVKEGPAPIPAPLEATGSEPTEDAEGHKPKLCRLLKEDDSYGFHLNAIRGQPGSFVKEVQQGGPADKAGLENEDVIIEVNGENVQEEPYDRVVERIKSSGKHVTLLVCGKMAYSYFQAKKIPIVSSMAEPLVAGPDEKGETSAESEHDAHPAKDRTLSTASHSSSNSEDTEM", "experiment": "ITC; 1.0 mM peptide injected in 10 µl aliquots into 0.03 mM PDZ1 or full length PDZK1 in the cell; 150 mM NaCl, 25 mM Tris pH 8.0, 0.5 mM TCEP, 20°C; VP-ITC"}, "[6]": {"molecular_target": "T4, PDZK1 residues 7-106 (PDZ1 domain 7-86 with interdomain residues 87-106), the PDZK1 portion of the PDZ1-IP … (mouse, UniProt Q9JIL4 7-106)", "T4 construct": "PDZK1 residues 7-106: PDZ1 (7-86) and interdomain residues 87-106; numbering of the intact murine PDZK1; Stood in the crystal joined on one chain with m8 (the chimera m6, with Gly-Ser at its N-terminus); written apart for the pair PDZ1 with the IP peptide; also called PDZ1 portion of the structure; source: E. coli JM109, purified, as part of the PDZ1-IP chimera; not shown: GST, N-terminal, cleaved", "T4 sequence (looked up)": "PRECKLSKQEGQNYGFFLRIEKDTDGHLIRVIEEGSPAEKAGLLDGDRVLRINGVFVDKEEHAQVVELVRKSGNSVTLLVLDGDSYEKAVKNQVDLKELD", "experiment": "crystal structure; PDZ1-IP chimera at 1 mM, sitting drop vapor diffusion, 18°C, 0.1 M MES pH 6.5, 30% (w/v) PEG 300; 1.70 Å; the IP peptide of one molecule binds the PDZ1 of the adjacent molecule", "details": "both partners purified"}, "[7]": {"molecular_target": "the molecule itself", "experiment": "crystal structure; PDZ1-IP chimera at 1 mM, sitting drop vapor diffusion, 18°C, 0.1 M MES pH 6.5, 30% (w/v) PEG 300; 1.70 Å; the IP peptide of one molecule binds the PDZ1 of the adjacent molecule"}},
  "note": "Where a SMILES comes first, the peptide text is derived from it.",
  "data": [
    {"molecule": "CC[C@H](C)[C@H](NC(=O)[C@H](CCCCN)NC(=O)[C@@H](N)CCCCN)C(=O)N[C@@H](C)C(=O)N[C@@H](C)C(=O)N[C@@H](CS)C(=O)N[C@@H](CO)C(=O)N[C@@H](CC(C)C)C(=O)N[C@@H](CS)C(=O)O", "note": "[Peptide 1] (H-KKIAACSLC-OH)", "values": [
      {"measurement": "Kd", "setting": "[1]", "value": 8.2, "unit": "µM"}
    ]},
    {"molecule": "-VLQEAKL [SR-BI, scavenger receptor class B, type I]", "values": [
      {"measurement": "Kd", "setting": "[2]; PDZ1 of PDZK1, read-out: Kd of SR-BI binding to PDZ1", "value": 2.6, "unit": "µM"},
      {"measurement": "Affinity of SR-BI/PDZ1 interaction", "setting": "[2]", "value": "high affinity"},
      {"measurement": "Affinity of SR-BI/PDZ3 interaction", "setting": "[3]", "value": "lower affinity"}
    ]},
    {"molecule": "KKIAACSLC (prostacyclin receptor (IP), mouse, seven carboxy-terminal residues 411-417; also called target peptide; C-terminal nonapeptide from IP; source: synthetic peptide, HPLC purified (Tufts University Core Facility))", "values": [
      {"measurement": "Kd", "setting": "[4]", "value": "60.2 ± 14.2", "unit": "µM"},
      {"measurement": "Kd", "setting": "[5]", "value": 8.2, "unit": "µM"}
    ]},
    {"molecule": "IAACSLC (prostacyclin receptor (IP), mouse, seven carboxy-terminal residues 411-417; also numbered -6 to 0 from the C-terminal residue; Stood in the crystal fused to the C-terminus of m7 (the chimera m6); also called IP target peptide; IP peptide; source: E. coli JM109, purified, as part of the PDZ1-IP chimera)", "note": "[seven carboxy-terminal residues of mouse IP (411IAACSLC417), the IP portion of the PDZ1-IP chimera]", "values": [
      {"measurement": "binding result", "setting": "[6]", "value": "binds"}
    ]},
    {"molecule": "chimeric PDZ1-IP recombinant protein (residues 7-106 of PDZK1 fused to the seven carboxy-terminal amino acids of mouse IP) (other, Gly-Ser dipeptide from the cloning vector (pGEX-4T-3), left at the N-terminus after thrombin digestion; PDZK1 residues 7-106: PDZ1 (7-86) and interdomain residues 87-106; numbering of the intact murine PDZK1; prostacyclin receptor (IP), mouse, seven carboxy-terminal residues 411-417; In the structure the chain is numbered 7Pro to 113Cys; also called PDZ1-IP chimera; PDZ1-IP target peptide …) GSPRECKLSKQEGQNYGFFLRIEKDTDGHLIRVIEEGSPAEKAGLLDGDRVLRINGVFVDKEEHAQVVELVRKSGNSVTLLVLDGDSYEKAVKNQVDLKELDIAACSLC", "values": [
      {"measurement": "binding result", "setting": "[7]", "value": "binds"}
    ]}
  ]
}
